Like-named read-outs stand apart in the source and are kept apart here.
Tests used:
P. falciparum LDH = P. falciparum LDH (Plasmodium falciparum, UniProt Q27743); assay: fluorescence-coupled LDH enzyme assay on microfluidics system, continuously variable concentration gradient, fit to Equation 4; assay type: biochemical
Excerpt: A fluorescence-coupled enzyme assay was developed using a microfluidics system described herein for creating a continuously variable concentration gradient to monitor the reduction of NAD^+ by the enzyme LDH to give a fluorescent end product. This system was then adapted to measure potency and determine mechanism of inhibition by various inhibitors of LDH.
One of the products of the reaction in the assay, NADH, is coupled to Thermus thermophilus NADH oxidase to generate H2O2, which in turn is coupled to horseradish peroxidase which reacts with […] and amplex red (Molecular Probes, Inc., Eugene, Oreg., U.S.A.) to give the fluorescent product resorufin. […]
The novel data analysis techniques described herein for determining the mechanism of inhibition of an inhibitor (or mechanism of activation of an activator) are applied to the data produced from the microfluidics system. The titration of the enzyme with a continuous linear variation of inhibitor and substrate from zero to a pre-determined finite concentration yields a characteristic rate profile that is defined by the specific type of interaction of the inhibitor and enzyme with respect to the substrate. […]
The titration of LDH with a linear gradient of NAD^+ was performed on the microfluidics system described herein with the change in relative fluorescence intensity monitored under initial rate conditions. […]

[1] = target: T1, rabbit muscle lactate dehydrogenase (LDH) (Oryctolagus cuniculus, UniProt P13491); assay: continuous variation method on microtiter plate, step concentration gradients; assay type: biochemical
T1 construct: the enzyme rabbit muscle lactate dehydrogenase (LDH); from tissue; host or cells: rabbit muscle
Excerpt: Determination of the mechanism of inhibition by the inhibitor oxalate with respect to the substrate NAD^+ against the enzyme rabbit muscle lactate dehydrogenase (LDH) using a microtiter plate to generate individual step concentration gradients was attempted. FIG. 47 is a graph showing the results of the experiment. An attempt to determine the mechanism of inhibition by the inhibitor oxalate with respect to the substrate lactate against the enzyme rabbit muscle LDH using a microtiter plate to generate individual step concentration gradients was attempted. FIG. 48 is a graph showing the results of this experiment.

LDH = conditions: cited from earlier work

Sequence of P. falciparum LDH (Q27743 whole entry): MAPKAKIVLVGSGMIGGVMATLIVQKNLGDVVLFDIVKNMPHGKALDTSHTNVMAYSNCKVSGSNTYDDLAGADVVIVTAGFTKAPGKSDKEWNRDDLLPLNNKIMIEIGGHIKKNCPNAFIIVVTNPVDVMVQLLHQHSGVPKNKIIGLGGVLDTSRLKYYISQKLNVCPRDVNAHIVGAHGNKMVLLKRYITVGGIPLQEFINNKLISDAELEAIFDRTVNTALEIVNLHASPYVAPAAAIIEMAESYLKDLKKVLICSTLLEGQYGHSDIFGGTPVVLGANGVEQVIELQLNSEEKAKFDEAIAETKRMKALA

| Compound | Km (P. falciparum LDH; titration of LDH with linear gradient of NAD+, initial rate conditions, read-out: Km (Michaelis constant)) | mechanism of inhibition ([1]; with respect to NAD+, ambiguous) | mechanism of inhibition ([1]; with respect to lactate, not certain) | mechanism of inhibition (P. falciparum LDH; with respect to substrate NAD+, continuous gradient) | mechanism of inhibition (LDH; with respect to NAD+) | mechanism of inhibition (LDH; with respect to lactate) |
| --- | --- | --- | --- | --- | --- | --- |
| NC(=O)c1ccc[n+]([C@@H]2O[C@H](COP(=O)([O-])OP(=O)(O)OC[C@H]3O[C@@H](n4cnc5c(N)ncnc54)[C@H](O)[C@@H]3O)[C@@H](O)[C@H]2O)c1 [NAD^+] | 54 ± 2 µM | – | – | – | – | – |
| O=C(O)C(=O)O [oxalate] | – | uncompetitive inhibitor | competitive inhibitor | uncompetitive inhibition | uncompetitive | competitive inhibitor |

Reference: US7897330B2, “Methods for characterizing enzyme inhibitors” (AB Sciex, LLC, priority 2005, dated 2011)
